Measured values as given in ChEMBL document CHEMBL1201862, “PubChem BioAssay data set” (2004).
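Results reflect a 48-hour exposure of cells in 96-well plates to compound at five concentrations. GI50: concentration for 50% inhibition of growth.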 Calls of active or inactive are those of the source. No stated cut-off is given here; in the data, active = GI50 up to about 1.1 µM and inactive = higher.

What was measured:
Test in all cases: DTP human tumour cell line panel, 48 h
ACHN = tested on: ACHN
CAKI-1 = tested on: CAKI-1
DMS-114 = tested on: DMS-114
M14 = tested on: M14
Malme-3M = tested on: Malme-3M
NCI-H522 = tested on: NCI-H522
SF-539 = tested on: SF-539
SK-MEL-2 = tested on: SK-MEL-2
SK-OV-3 = tested on: SK-OV-3
SNB-78 = tested on: SNB-78
HCT-116 = tested on: HCT-116
MCF7 = tested on: MCF7
NCI/ADR-RES = tested on: NCI/ADR-RES

Row | SMILES | GI50 (ACHN) | GI50 (CAKI-1) | GI50 (DMS-114) | GI50 (M14) | GI50 (Malme-3M) | GI50 (NCI-H522) | GI50 (SF-539) | GI50 (SK-MEL-2) | GI50 (SK-OV-3) | GI50 (SNB-78) | GI50 (HCT-116) | GI50 (MCF7) | GI50 (NCI/ADR-RES)
1 | NC(=O)c1csc(C2O[C@@H](COP(=O)(O)OP(=O)(O)OC[C@H]3OC(n4cnc5c(N)ncnc54)[C@H](O)[C@@H]3O)[C@H](O)[C@@H]2O)n1 (stereo not given in full) | > 100 µM (inactive) | 97.9 µM (inactive) | > 100 µM (inactive) | 37.8 µM (inactive) | > 100 µM (inactive) | 52.8 µM (inactive) | 52 µM (inactive) | > 100 µM (inactive) | > 100 µM (inactive) | > 100 µM (inactive) |  |  | 
2 | C=C1CC(OC)(C(O)C(=O)N[C@H]2OCO[C@H]3C2O[C@H](C[C@@H](COC)OC)C(C)(C)C3OC)O[C@H](C)[C@@H]1C (stereo not given in full) |  | < 0.00482 µM (active) | < 0.00482 µM (active) |  |  | < 0.00482 µM (active) | < 0.00482 µM (active) |  |  | < 0.00482 µM (active) | < 0.00482 µM (active) | < 0.00482 µM (active) | < 0.00482 µM (active)
3 | COc1ccc(C2CC(c3sc(Nc4ccc(C)cc4)nc3C)=NN2)cc1 (stereo not given) |  | 18 µM (inactive) | 14.1 µM (inactive) |  | > 10 µM (inactive) | 15.3 µM (inactive) | 15.4 µM (inactive) | 15.8 µM (inactive) | 24.4 µM (inactive) | 22.1 µM (inactive) | 6.46 µM (inactive) | 14 µM (inactive) | 17.4 µM (inactive)
4 | NC(=S)N/N=C1\CC(c2ccccc2)Nc2ccccc21 (stereo not given) | 46.3 µM (inactive) | 66.7 µM (inactive) | 23.4 µM (inactive) | 42.1 µM (inactive) | 27.6 µM (inactive) | 25.2 µM (inactive) | 41.7 µM (inactive) |  | 39.1 µM (inactive) | 68.9 µM (inactive) |  |  | 
5 | CON(C)C(=O)C(Cc1ccccc1)NC(=O)OCc1ccccc1 (stereo not given) | > 100 µM (inactive) | > 100 µM (inactive) | 58.9 µM (inactive) | > 100 µM (inactive) | 75.5 µM (inactive) | 58.6 µM (inactive) | > 100 µM (inactive) | > 100 µM (inactive) | > 100 µM (inactive) | > 100 µM (inactive) | > 100 µM (inactive) |  | 
6 | O=NN(CCCl)C(=O)N[C@H]1CC[C@H](C(=O)O)CC1 |  | > 100 µM (inactive) | 22.8 µM (inactive) |  | 94.8 µM (inactive) | 38.6 µM (inactive) | 36.1 µM (inactive) | > 100 µM (inactive) | > 100 µM (inactive) | > 100 µM (inactive) | > 100 µM (inactive) | > 100 µM (inactive) | > 100 µM (inactive)
7 | O=P(CCOc1ccccc1OCCP(=O)(c1ccccc1)c1ccc2c(c1)OCCOCCOCCOCCO2)(c1ccccc1)c1ccc2c(c1)OCCOCCOCCOCCO2 (stereo not given) | > 100 µM (inactive) |  | > 100 µM (inactive) | > 100 µM (inactive) | > 100 µM (inactive) | > 100 µM (inactive) | > 100 µM (inactive) | > 100 µM (inactive) | > 100 µM (inactive) | > 100 µM (inactive) | > 100 µM (inactive) |  | 
